Molecules are shown by their SMILES.

A short description of this data set: Injectability: force versus flow using a 30 G needle. The data set is classed as physicochemical. The settings on record: 1 mL syringe. The protocol: 5 mL insulin-linker-hydrogel prodrug 29 (bead size distribution from 32-75 μm, 18 mg insulin/ml insulin-linker-hydrogel prodrug suspension) was buffer exchanged into pH 5.0 succinic acid/tris (10 mM, 40 g/L mannitol; 10 g/L trehalose dihydrate; 0.05% TWEEN-20). The insulin-linker-hydrogel prodrug suspension was filled into a 1 mL syringe (length 57 mm) via a 20 G needle. The 20 G needle was replaced by a 30 G needle and placed into the syringe mounting (Aqua Computer GmbH&Co. KG) and the measurement was started with a piston velocity of 172 mm/min (equals 50 μL/s) (Force test stand: Multitest 1-d, Data recording software: EvaluatEmperor Lite, Version 1.16-015, Forge Gauge: BFG 200 N (all Mecmesin Ltd., UK). Experiments with increasing piston velocities shown in the table below were carried out with a new insulin-linker-hydrogel prodrug sample. The experiments with water and ethylene glycol were carried out accordingly. For all of the experiments the same 30 G needle was used.

On to `OCCO` [ethylene glycol], for which the Force runs as follows: (flow 6 sec/mL, 167 μL/sec, piston velocity 573 mm/min) 83 N; (flow 8 sec/mL, 125 μL/sec, piston velocity 430 mm/min) 62 N; (flow 10 sec/mL, 100 μL/sec, piston velocity 344 mm/min) 51 N; (flow 15 sec/mL, 67 μL/sec, piston velocity 229 mm/min) 35 N; (flow 20 sec/mL, 50 μL/sec, piston velocity 172 mm/min) 27 N.
